US20250057928A1, “VACCINE COMPOSITION FOR INDUCING ANTI-IL-23 ANTIBODY” (OSAKA UNIVERSITY, priority 2021, published 2025)
Where no end group is shown, it is not given here.

Experiments:
BALB/c mouse = test: TNBS-induced mouse colitis model; format: in vivo
Method: AJP001 conjugated peptide (SEQ ID NO: 2) was dissolved in physiological saline, mixed with an equal amount of 1 mg/mL Type-B/K CpG-ODN K3 (GeneDesign, Inc., hereinafter sometimes to be referred to as “CpG”), and subcutaneously administered to BALB/c mouse (female, 6-week-old, N=10) at 1 mg/body 3 times at two-week intervals. At the time point of 6 weeks after the initial administration, TNBS dissolved in 30% ethanol was administered by intestinal infusion at 2 mg/body. With the first administration of TNBS as Day 0, TNBS was administered by intestinal infusion at 3 mg/body on Day 7 to induce colitis. A Normal group and a 30% EtOH group, each without administration of TNBS, a Saline/TNBS group with administration of TNBS but without administration of the peptide, and a CpG/INBS group with administration of only an adjuvant were provided. Body weight was measured on Days 1, 2, 3, 4, 7, 8, 9, and 10, including the day of TNBS administration. After euthanasia by cardiac blood collection under deep anesthesia on Day 10, the obtained serum was measured for the antibody titer (GMT) and binding to mIL-23 by the ELISA method (same method as in Example 1). In addition, large intestinal tissue was collected, the length (cm) of the large intestine was measured, a 2 cm region from the anus was subjected to the measurement of cytokine mRNA expression, and a 2 to 4 cm region was subjected to histopathological examination. As to the expression of cytokine mRNA, the region was bead disrupted under ice-cooling, total RNA was extracted using RNeasy Fibrous Tissue Kit (Qiagen), and then cDNA of the extracted RNA was prepared using High-Capacity cDNA Reverse Transcription Kit ([…]). Using TaqMan Gene Expression Assays (GAPDH: Mm99999915_g1; IL-17A: Mm00439618_m1; IL-17F:Mm00521423_m1; IL-22:Mm01226722_m1; IL-23:Mm00518984_m1; IL-1β:Mm00434228_m1), Ct value was measured using Applied Biosystems 7900HT Fast Real Time PCR System. The mRNA expression level was calculated by the ΔΔCt method and evaluated as a relative value to the normal group. For histopathological examination, the collected large intestine was fixed with 10% neutral formalin, and then a specimen was prepared according to a conventional method and stained with HE. The HE-stained specimen was observed under a microscope, scored for inflammatory cell infiltration (Grade: 0-3), depth of colorectal tissue damage (Grade: 0-3), and range of colorectal mucosal damage (Grade: 0-4), and the total score was calculated.

[1] = tested on: recombinant human IL-23 protein (rhIL-23); test: Binding of mouse antiserum to rhIL-23, ELISA; conditions: antiserum of BALB/c mice, 1 mg/body 3 times, no adjuvant; 6 weeks
Method: AJP001 conjugated peptide (SEQ ID NOs: 6-37) was dissolved in physiological saline, mixed with an equal amount of 2% Alhydrogel (invivogen), and this was intradermally administered to BALB/c mice (female, 6-week-old, N=5-6) at 0.5 mg/body 3 times at two-week intervals. Blood was collected before administration and at the time point of 6 weeks after initial administration, and the antibody titer (GMT) to each epitope sequence and binding ability to recombinant human IL-23 protein (rhIL-23) (Peprotech) were measured by the ELISA method (same method as in Example 1). The binding to rhIL-23 was evaluated by a binding ratio to normal serum by calculating the ratio of the absorbance of a well added with normal mouse serum to the absorbance of a well added with antiserum derived from a mouse administered with each AJP001 conjugated peptide (SEQ ID NOs: 6-37). In addition, the neutralization activity of mouse antiserum was evaluated using an action on IL-17 production in rhIL-23 stimulated mouse splenocyte as an index. The spleen of normal BALB/c mouse (female, 5-week-old, N=3) was triturated using a syringe barrel and a cell strainer and washed with and suspended in HBSS (−). Erythrocytes were then removed using ACK Buffer (Thermo fisher scientific), and splenocytes were isolated. The splenocytes were prepared to 2.5×10^6 cells/mL with 10% FBS/1% penicillin/streptomycin/4 ng/mL rmIL-2-containing RPMI1640 medium (culture medium), and seeded in a 96 well plate at 100 μl/well. The antiserum (final concentration 15-fold) of the mice administered with each AJP001 conjugated peptide and rhIL-23 (final concentration 10 ng/ml) were added to the culture medium, reacted at 37° C. for 2 hr, added at 100 μL/well to a 96-well plate seeded with splenocytes, and cultured for 3 days in a 37° C./5% CO2 incubator. An untreated well and a control well to which normal mouse serum and rhIL-23 were added were provided. IL-17A/F in the culture supernatant was measured using Mouse IL-17A/F ELISA kit (R&D systems), the proportion (%) of IL-17 to normal serum was calculated from the IL-17 concentrations of untreated well (A), control well (B), and well (C) to which antiserum of the mice administered with each AJP001 conjugated peptide was added and according to the following formula, and the neutralization activity was evaluated.
AJP001 conjugated peptide (SEQ ID NO: 6) was dissolved in physiological saline and intradermally administered to BALB/c mice (female, 6-week-old, N=6) at 1 mg/body 3 times at two-week intervals, and blood was collected every 2 weeks until 8 weeks. The antibody titer (GMT) of all the collected sera and the binding ability to rhIL-23 of the serum at 6 weeks were measured by the ELISA method. In FIG. 5, “*” means P<0.05.

rmIL-23 = test: Binding of monkey antiserum to rmIL-23, ELISA; parameters: species or system mouse; conditions: monkey antiserum 6 weeks after the initial administration; second statement of b202, FIG. 7(b) covers rhIL-23 and rmIL-23
Method: FIG. 7(a) is a graph showing the antibody titer (GMT) of serum collected over time from Macaca fascicularis administered with AJP001 conjugated peptide (SEQ ID NO: 6). FIG. 7(b) is a graph showing the binding ability to rhIL-23 and rmIL-23 of serum collected from the Macaca fascicularis administered with AJP001 conjugated peptide (SEQ ID NO: 6) at 6 weeks after the first administration. FIG. 7(c) is a graph showing the evaluation of neutralization activity of IgG derived from Macaca fascicularis administered with AJP001 conjugated peptide (SEQ ID NO: 6). FIG. 7(d) is a graph showing the results of epitope mapping of anti-IL-23 antibody induced by AJP001 conjugated peptide (SEQ ID NO: 6).
AJP001 conjugated peptide (SEQ ID NO: 6) was dissolved in physiological saline and subcutaneously administered to Macaca fascicularis (female, […], N=4) at 5 mg/body 3 times at two-week intervals. Blood was collected every two weeks from the first day of administration until week 16, and the antibody titer (GMT) and binding to IL-23 of the serum at each time point were measured by the ELISA method (same method as in Example 1; the secondary antibody used was Anti-Monkey IgG (Abcam)). In FIG. 7, “*” means P<0.05.

## SEQ ID NO 2: AJP001-Ahx-B cell epitope peptide conjugate; epitope SSSQQWQR (mouse 152-159) (not fully specified (N-terminus); listed as Mus musculus)
BALB/c mouse; 1 mg/body with CpG 3 times, Day 10
  shortened large intestine length: suppressive action
BALB/c mouse; 1 mg/body with CpG 3 times, Day 10, HE
  inflammatory changes in large intestine tissues: suppressive action
BALB/c mouse; 1 mg/body with CpG 3 times, Day 10, large intestinal tissue
  mRNA expression of IL-17A, IL-22, and IL-1β in tissues: suppressive action
BALB/c mouse; BALB/c mice, 1 mg/body subcutaneous with CpG-ODN K3, 3 times, TNBS Day 0 and Day 7, vs Saline/TNBS or CpG/TNBS
  body weight loss: suppressive action

## SEQ ID NO 6: AJP001-Ahx-B cell epitope peptide conjugate; epitope SPSQPWQR (human 151-158) (not fully specified (N-terminus); listed as Homo sapiens)
[1]
  binding ability to rhIL-23: confirmed
rmIL-23
  binding to rmIL-23: not observed
